Measurements taken from US9833497B2, “Human originated EGF domain proteins and use of the same” (CHENGDU SOURCEBIO LIMITED-LIABILITY COMPANY, priority 2013, dated 2017).

Columns and labels:
Assay type in all cases: cell-based
[1] = system: Citrobacter diversus; assay: MIC against Gram-negative bacteria: Citrobacter diversus
In short: (§1)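 MIC, the lowest recombinant protein concentration giving no bacterial growth, found by two-fold serial dilution of human EGF-domain proteins in triplicate. Inoculum 5×10^5 CFU/mL in LB from cultures at McFarland 0.5; plates incubated at 37° C, 175 rpm shaking.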

[2] = system: Enterobacter cloacae; assay: MIC against Gram-negative bacteria: Enterobacter cloacae
In short: as §1

[3] = system: Serratia marcescens; assay: MIC against Gram-negative bacteria: Serratia marcescens
In short: as §1

[4] = system: Proteus vulgaris; assay: MIC against Gram-negative bacteria: Proteus vulgaris
In short: as §1

[5] = system: Proteus mirabilis; assay: MIC against Gram-negative bacteria: Proteus mirabilis
In short: as §1

[6] = system: Aeromonas hydrophila; assay: MIC against Gram-negative bacteria: Aeromonas hydrophila
In short: as §1

[7] = system: E. coli DH5α; assay: Antibacterial activity: MIC and growth curve against E. coli DH5α in 96-well plate; conditions: minimal inhibitory concentration against E. coli DH5α; 96-well plate, 5×10^5 CFU/mL, 37° C., judged after 8 h
In short: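 Log-phase DH5α (OD600 about 0.5, 37° C, 185 rpm in LB) was pelleted, resuspended in fresh LB and seeded at 5×10^5 CFU/mL with recombinant protein at 50, 25 and 12.5 μg/mL (two-fold series), in triplicate. Plates were shaken at 175 rpm, 37° C, and OD600 was read every 30 min. MIC was the lowest concentration with no growth.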

[8] = system: E. coli BL21; assay: MIC against Gram-negative bacteria: E. coli BL21
In short: as §1

[9] = system: Klebsiella pneumonia; assay: MIC against Gram-negative bacteria: Klebsiella pneumonia
In short: as §1

[10] = system: Moraxella catarrhalis; assay: MIC against Gram-negative bacteria: Moraxella catarrhalis
In short: as §1

[11] = system: Pseudomonas aeruginosa; assay: MIC against Gram-negative bacteria: Pseudomonas aeruginosa
In short: as §1

[12] = Citrobacter diversus, 96-well plate, 5×10^5 CFU/mL, 37° C., 10 h
[13] = Enterobacter cloacae, 96-well plate, 5×10^5 CFU/mL, 37° C., 10 h
[14] = Serratia marcescens, 96-well plate, 5×10^5 CFU/mL, 37° C., 10 h
[15] = Proteus vulgaris, 96-well plate, 5×10^5 CFU/mL, 37° C., 10 h
[16] = Proteus mirabilis, 96-well plate, 5×10^5 CFU/mL, 37° C., 10 h
[17] = Aeromonas hydrophila, 96-well plate, 5×10^5 CFU/mL, 37° C., 10 h
[18] = E. coli BL21, 96-well plate, 5×10^5 CFU/mL, 37° C., 10 h
[19] = Klebsiella pneumonia, 96-well plate, 5×10^5 CFU/mL, 37° C., 10 h
[20] = Moraxella catarrhalis, 96-well plate, 5×10^5 CFU/mL, 37° C., 10 h
[21] = Pseudomonas aeruginosa, 96-well plate, 5×10^5 CFU/mL, 37° C., 10 h
[22] = C. diversus, 10 h cultivation at 37° C.
[23] = E. cloacae, 10 h cultivation at 37° C.
[24] = S. marcescens, 10 h cultivation at 37° C.
[25] = P. vulgaris, 10 h cultivation at 37° C.
[26] = P. mirabilis, 10 h cultivation at 37° C.
[27] = A. hydrophila, 10 h cultivation at 37° C.
[28] = E. coli BL21, 10 h cultivation at 37° C.
[29] = K. pneumonia, 10 h cultivation at 37° C.
[30] = M. catarrhalis, 10 h cultivation at 37° C.
[31] = P. aeruginosa, 10 h cultivation at 37° C.
[32] = 96-well plate, 5×10^5 CFU/mL, 37° C., 10 h
[33] = 10 h cultivation at 37° C., 5×10^5 CFU/mL, two-fold serial dilution

Substance | MIC (μg/mL) C. diversus [1, 12] [µg/mL] | MIC (μg/mL) E. cloacae [2, 13] [µg/mL] | MIC (μg/mL) S. marcescens [3, 14] [µg/mL] | MIC (μg/mL) P. vulgaris [4, 15] [µg/mL] | MIC (μg/mL) P. mirabilis [5, 16] [µg/mL] | MIC (μg/mL) A. hydrophila [6, 17] [µg/mL] | MIC [7] [µg/mL] | MIC (μg/mL) E. coli BL21 [8, 18] [µg/mL] | MIC (μg/mL) K. pneumonia [9, 19] [µg/mL] | MIC (μg/mL) M. catarrhalis [10, 20] [µg/mL] | MIC (μg/mL) P. aeruginosa [11, 21] [µg/mL] | MIC against C. diversus [1, 32] [µg/mL] | MIC against E. cloacae [2, 32] [µg/mL] | MIC against S. marcescens [3, 32] [µg/mL] | MIC against P. vulgaris [4, 32] [µg/mL] | MIC against P. mirabilis [5, 32] [µg/mL] | MIC against A. hydrophila [6, 32] [µg/mL] | MIC against E. coli BL21 [8, 32] [µg/mL] | MIC against K. pneumonia [9, 32] [µg/mL] | MIC against M. catarrhalis [10, 32] [µg/mL] | further results
PRT112 (DINECTDFVDVPCSHFCNNFIGGYFCSCPPEYFLHDDMKNCG; listed as Homo sapiens) | 12.5 | 12.5 | 50 | 12.5 | 50 | 12.5 | 50 | 12.5 | 12.5 | 12.5 | 50 |  |  |  |  |  |  |  |  |  | 
PRT137 (NPCQGSATCVNTPGERSFLCKCPPGYSGTICE; listed as Homo sapiens) | 25 | 25 | 50 | 12.5 | 25 | 12.5 | 25 | 12.5 | 12.5 | 12.5 | 25 |  |  |  |  |  |  |  |  |  | 
PRT964 (NIDDCASNPCTFGVCRDGINRYDCVCQPGFTGPLCN; listed as Homo sapiens) |  |  |  |  |  |  | 12.5 |  |  |  |  |  |  |  |  |  |  |  |  |  | MIC [1, 22]: 50 µg/mL; MIC [2, 23]: 12.5 µg/mL; MIC [3, 24]: 50 µg/mL; MIC [4, 25]: 12.5 µg/mL; MIC [5, 26]: 25 µg/mL; MIC [6, 27]: 25 µg/mL; MIC [8, 28]: 25 µg/mL; MIC [9, 29]: 25 µg/mL; MIC [10, 30]: 25 µg/mL; MIC [11, 31]: 50 µg/mL
PRT93 (PLLHCAPGFCFPGVACIQTESGARCGPCPAGFTGNGSHCT; listed as Homo sapiens) | 100 | 12.5 | 12.5 | 12.5 | 12.5 | 25 | 50 | 12.5 | 12.5 | 25 | 50 |  |  |  |  |  |  |  |  |  | 
PRT494 (CNCSLVGSTHHRCDVVTGHCQCKSKFGGRACDQCSLGYRDFPDCVP; listed as Homo sapiens) |  |  |  |  |  |  | 50 |  |  |  |  | 12.5 | 50 | 12.5 | 25 | 50 | 25 | 25 | 25 | 25 | MIC against P. aeruginosa [11, 32]: 12.5 µg/mL
PRT539 (CDCSGNSDPNLIFEDCDEVTGQCRNCLRNTTGFKCERCAPGYYGDARIAKNCAV; listed as Homo sapiens) |  |  |  |  |  |  | 12.5 |  |  |  |  | 12.5 | 50 | 50 | 12.5 | 50 | 25 | 50 | 25 | 25 | MIC against P. aeruginosa [11, 32]: 12.5 µg/mL
PRT537 (CDCNGNSNECLDGSGYCVHCQRNTTGEHCEKCLDGYIGDSIRGAPQFCQP; listed as Homo sapiens) |  |  |  |  |  |  | 50 |  |  |  |  | 12.5 | 50 | 12.5 | 25 | 12.5 | 25 | 25 | 25 | 25 | MIC against P. aeruginosa [11, 32]: 12.5 µg/mL
PRT576 (CTCNLLGTNPQQCPSPDQCHCDPSSGQCPCLPNVQGPSCDRCAPNFWNLTSGHGCQP; listed as Homo sapiens) |  |  |  |  |  |  | 12.5 |  |  |  |  | 12.5 | 12.5 | 25 | 50 | 12.5 | 12.5 | 12.5 | 12.5 | 50 | MIC against P. aeruginosa [11, 32]: 12.5 µg/mL
PRT1179 (DIDECASNPCLNGGHCQNEINRFQCLCPTGFSGNLCQ; listed as Homo sapiens) |  |  |  |  |  |  | 12.5 |  |  |  |  |  |  |  |  |  |  |  |  |  | MIC C. diversus [1, 33]: 12.5 µg/mL; MIC E. cloacae [2, 33]: 50 µg/mL; MIC S. marcescens [3, 33]: 12.5 µg/mL; MIC P. vulgaris [4, 33]: 25 µg/mL; MIC P. mirabilis [5, 33]: 50 µg/mL; MIC A. hydrophila [6, 33]: 25 µg/mL; MIC E. coli BL21 [8, 33]: 50 µg/mL; MIC K. pneumonia [9, 33]: 12.5 µg/mL; MIC M. catarrhalis [10, 33]: 25 µg/mL; MIC P. aeruginosa [11, 33]: 25 µg/mL
PRT1308 (TSPQCPRKCDPNANCVQDSAGASTCACAAGYSGNGIFCS; listed as Homo sapiens) |  |  |  |  |  |  | 50 |  |  |  |  |  |  |  |  |  |  |  |  |  | MIC against C. diversus [1, 12]: 25 µg/mL; MIC against E. cloacae [2, 13]: 50 µg/mL; MIC against S. marcescens [3, 14]: 50 µg/mL; MIC against P. vulgaris [4, 15]: 12.5 µg/mL; MIC against P. mirabilis [5, 16]: 25 µg/mL; MIC against A. hydrophila [6, 17]: 12.5 µg/mL; MIC against E. coli BL21 [8, 18]: 12.5 µg/mL; MIC against K. pneumonia [9, 19]: 12.5 µg/mL; MIC against M. catarrhalis [10, 20]: 50 µg/mL; MIC against P. aeruginosa [11, 21]: 50 µg/mL
PRT6 (TRKLCSLDNGDCDQFCHEEQNSVVCSCARGYTLADNGKACI; listed as Homo sapiens) | 25 | 25 | 25 | 25 | 12.5 | 12.5 | 50 | 50 | 50 | 25 | 25 |  |  |  |  |  |  |  |  |  | 
PRT927 (DIDDCSSTPCLNGAKCIDHPNGYECQCATGFTGVLCE; listed as Homo sapiens) |  |  |  |  |  |  | 25 |  |  |  |  |  |  |  |  |  |  |  |  |  | MIC [1, 22]: 12.5 µg/mL; MIC [2, 23]: 25 µg/mL; MIC [3, 24]: 50 µg/mL; MIC [4, 25]: 12.5 µg/mL; MIC [5, 26]: 25 µg/mL; MIC [6, 27]: 50 µg/mL; MIC [8, 28]: 50 µg/mL; MIC [9, 29]: 12.5 µg/mL; MIC [10, 30]: 50 µg/mL; MIC [11, 31]: 25 µg/mL
PRT786 (YGKDCALICQCQNGADCDHISGQCTCRTGFMGRHCE; listed as Homo sapiens) |  |  |  |  |  |  | 50 |  |  |  |  |  |  |  |  |  |  |  |  |  | MIC (μg/mL) C. diversus ([1]; C. diversus, 10 h cultivation at 37° C., 5×10^5 CFU/mL): 25 µg/mL; MIC (μg/mL) E. cloacae ([2]; E. cloacae, 10 h cultivation at 37° C., 5×10^5 CFU/mL): 12.5 µg/mL; MIC (μg/mL) S. marcescens ([3]; S. marcescens, 10 h cultivation at 37° C., 5×10^5 CFU/mL): 12.5 µg/mL; MIC (μg/mL) P. vulgaris ([4]; P. vulgaris, 10 h cultivation at 37° C., 5×10^5 CFU/mL): 12.5 µg/mL; MIC (μg/mL) P. mirabilis ([5]; P. mirabilis, 10 h cultivation at 37° C., 5×10^5 CFU/mL): 25 µg/mL; MIC (μg/mL) A. hydrophila ([6]; A. hydrophila, 10 h cultivation at 37° C., 5×10^5 CFU/mL): 12.5 µg/mL; MIC (μg/mL) E. coli BL21 ([8]; E. coli BL21, 10 h cultivation at 37° C., 5×10^5 CFU/mL): 25 µg/mL; MIC (μg/mL) K. pneumonia ([9]; K. pneumonia, 10 h cultivation at 37° C., 5×10^5 CFU/mL): 50 µg/mL; MIC (μg/mL) M. catarrhalis ([10]; M. catarrhalis, 10 h cultivation at 37° C., 5×10^5 CFU/mL): 12.5 µg/mL; MIC (μg/mL) P. aeruginosa ([11]; P. aeruginosa, 10 h cultivation at 37° C., 5×10^5 CFU/mL): 12.5 µg/mL
